How the values were obtained:
[1] = Solubility in water / phosphate-buffered solution (pH 7.4)
[2] = cited from earlier work

With CCCN1C[C@@H](NC(=O)N(CC)CC)C[C@@H]2c3cccc4[nH]cc(c34)C[C@H]21 [proterguride] the solubility ([1]; free compound, phosphate-buffered solution (pH 7.4)) was 2.6 mg/100 mL and the “solubility in water relative to lisuride” value ([1]; water) was “comparable to that of lisuride”.
In the case of CC(O)CO (stereo not shown) [propylene glycol, 1,2-propanediol (propylene glycol)], the “estimated amount acceptable as a daily oral dose” value [2] is listed as 25 mg/kg body weight.
With CCN(CC)C(=O)N[C@H]1C=C2c3cccc4[nH]cc(c34)C[C@H]2N(C)C1 [lisuride] the “solubility (estimated)” value ([1]; free lisuride, calculated from solubility data of active ingredients/salts (Zimmermann 1983)) was roughly 2.2 mg/100 mL.
